Measurements reported in publication PMC12381739, “Druglike Molecular Degraders of the Oncogenic RNA-Binding Protein HuR” (JACS Au, 2025).

Experiments:
Bcl2 and FOXQ1 mRNA = experiment: mRNA RT-qPCR of Bcl2 and FOXQ1 in MCF-7 cells; type: cell-based, human; details: MCF-7, any of the concentrations evaluated
Experimental: MCF-7 cells were seeded into 12-well plates (∼150,000 cells per well) at 60–70% confluency incubated for 12 h. The cells were then treated with different synthesized compounds at the indicated concentrations or with vehicle control for 24 and 48 h. After treatment, total RNA was extracted using the QuickRNA Miniprep Kit (Zymo Research) according to the manufacturer’s protocol, including DNase I treatment. Reverse transcription was performed on 1 μg of total RNA using the qScript cDNA Synthesis Kit (Quantabio) following the manufacturer’s instructions. Approximately 30 ng of cDNA were used for each qPCR reaction, which was carried out using the Luna Universal qPCR Master Mix (New England BioLabs, cat# E3010G) on a CFX Opus 384 Real-Time PCR System. Relative expression levels of Bcl-2 and FOXQ1 were calculated by normalizing to GAPDH expression using the ΔΔCt method.

MCF-7 spheroids = experiment: 3D spheroid growth model, MCF-7; type: cell-based, human
Experimental: (§1) MDA-MB-231 and MCF-7 breast cancer cells were cultured in standard tissue culture plates using RPMI or DMEM media supplemented with 10% fetal bovine serum (FBS) and 1% penicillin–streptomycin until they reached approximately 80% confluency. Cells were washed with PBS and dissociated using 0.25% Trypsin-EDTA, followed by neutralization with complete medium. Viability was assessed via trypan blue exclusion, ensuring >90% viable cells. For spheroid formation, cells were seeded into ultralow attachment 96-well plates at a density of 5000 cells/well in 200 μL of complete medium. Plates were centrifuged at 1000 rpm for 5 min to promote aggregation and incubated at 37 °C in a humidified 5% CO2 atmosphere. Spheroid formation was monitored daily using an inverted microscope. Media exchanges or treatment additions were performed by carefully aspirating 100 μL of medium from each well and replacing it with an equal volume of fresh or treatment-containing medium. Differences in spheroid characteristics between the two cell lines were noted: MCF-7 cells, being epithelial and E-cadherin positive, formed compact, uniform spheroids at lower seeding densities (1000–5000 cells/well) over 3–5 days, whereas MDA-MB-231 cells, which lack E-cadherin, required higher densities (5000–10,000 cells/well) and formed looser aggregates typically within 2–4 days. All experiments were performed in duplicates. Surface area was calculated using Image View’s multipoint connection function.

MDA-MB-231 spheroids = experiment: 3D spheroid growth model, MDA-MB-231; type: cell-based, human
Experimental: as §1

HuR = HuR (Homo sapiens, UniProt Q15717); experiment: HuR protein expression by western blot in MCF-7 cells; type: cell-based; set-up: endogenous in cells; host or cells: MCF-7
Description: Michigan Cancer Foundation-7 (MCF-7) cells were chosen due to their documented overexpression of HuR, which has been linked to cancer pathogenicity in this specific cell line. , Consequently, reducing HuR expression to physiologically normal levels is considered a potential strategy for novel anticancer therapies targeting breast cancers associated with HuR overexpression.
Total protein was extracted using RIPA cell lysis buffer (BioPrep) containing a protease inhibitor, and protein concentration was measured using the BCA protein assay (Sigma-Aldrich) according to the manufacturer’s protocol. Approximately 30 μg of total protein were resolved on a 12% SDS-acrylamide gel and transferred to a PVDF membrane (Immobilon FL transfer membrane; Merck). The membrane was washed with 1× Tris-buffered saline (TBS) containing 0.1% (v/v) Tween-20 (TBST; Tris-base, pH 7.6, NaCl, and Tween-20) and blocked in 1× TBST containing 5% (w/v) BSA for 2 h at room temperature. The membrane was then incubated overnight at 4 °C with primary antibodies: a 1:1000 dilution of rabbit anti-ELAVL1/HuR (Cell Signaling Technology, #12582), a 1:1000 dilution of mouse anti-Bcl2 (Cell Signaling Technology, #15071), or a 1:10,000 dilution of rabbit anti-Vinculin (Cell Signaling Technology, #13901) in 1× TBST containing 5% (w/v) BSA. Following primary antibody incubation, the membrane was washed with 1× TBST and incubated with a 1:10,000 dilution of the appropriate horseradish-peroxidase-conjugated secondary antibody (antirabbit IgG: Cell Signaling, #7074 or antimouse IgG: Cell Signaling, #7076) at room temperature for 2 h. After washing three times with 1X TBST (10 min per wash), protein bands were visualized using Clear Band ECL Substrate (Gene Bio-Application) on the Azure C300 Imaging System. The fold change in the expression of the target proteins (HuR or Bcl2) was calculated by normalizing the band intensity to the Vinculin band intensity using ImageJ.

HuR RRM1/2 = target: T1, HuR RRM1/2 (Homo sapiens, UniProt Q15717); experiment: Fluorescence polarization (FP) displacement assay, 5′ FAM-labeled RNA probe from HuR; details: displacement of 5′-FAM RNA probe UAUUUAUUUA (20 nM) from 500 nM HuR RRM1/2; read-out: Binding affinity towards HuR in FP assay (Kd)
T1 construct: 20 nM of the 5′-FAM RNA probe and 500 nM of HuR RRM1/2
Experimental: Following the synthesis, our initial aim was to ensure that the new derivatives retained their affinity for HuR’s RNA-binding pocket. Thus, a binding evaluation assay was conducted. As previously reported, the RNA-binding pocket of HuR specifically recognizes the UTR sequences of mRNAs, with […] identified as a common binding motif. To evaluate the binding of each degrader, we conducted a fluorescence-based assay utilizing a 5-carboxyfluorescein (5′ FAM)-labeled reporter. This fluorescence polarization (FP) assay is based on the displacement of the 5′ FAM-labeled mRNA from HuR’s RNA-binding pocket, which provides insight into both the binding affinity of the degrader and its capacity to disrupt the HuR-mRNA interaction, thereby serving as a means of validating target engagement. When the 5′ FAM-RNA probe is bound to HuR, it forms a binary complex, resulting in slower rotational movement and a consequently high FP signal. However, when either molecule displaces the 5′ FAM-labeled RNA, the probe is released into the solution, where it undergoes rapid rotation, leading to a significant reduction in the FP signal (Figure S3). This decrease in FP serves as a quantitative measure of the degrader’s ability to compete with mRNA for HuR binding. […] As mentioned above, we synthesized a series of HuR ligand derivatives featuring indole and benzothiophene cores, along with ester and carboxylic acid functional groups.
As previously reported, the sequence of the fluorescently labeled (5′-FAM) RNA probe is […]. The assays were performed in PBS buffer (20 mM sodium phosphate, 150 mM NaCl, 1 mM dithiothreitol, 0.05% PLURONIC-127, 15% DMSO) at 293 K. Fluorescence was measured using the Synergy H1 Hybrid Multi-Mode Microplate Reader (Biotek, Agilent) with excitation and emission wavelengths set to 485 and 528 nm, respectively. Each well of a 384-well plate contained 20 nM of the 5′-FAM RNA probe and 500 nM of HuR RRM1/2. Compounds were tested at eight concentrations (0.1 nM–100 μM), with compound 10 serving as a positive control and PBS as the negative control. The protein-mRNA mixture was incubated for 1.5 h to allow for binding interactions. After this incubation, the compounds were added, and the mixture was incubated for an additional hour. The FP emission of the resulting HuR-compound complex was then recorded. The percent inhibition of binding was calculated by comparing the FP values of experimental conditions to the PBS control. The FP value corresponding to the HuR-RNA complex in the presence of DMSO was used as the 100% complexation reference, while the FP value of the labeled RNA alone was set as 0% complexation. The dissociation constant (K d) for the compound-HuR binding interaction was determined by fitting the dose–response curve to specific binding models using Prism 10.2.2. All experiments were performed in triplicate.

GFP-HuR = target: T2, GFP-HuR (Homo sapiens, UniProt Q15717); experiment: GFP-HuR reporter assay; type: cell-based; details: HEK 293 cells, 10 μM, 24 h
T2 construct: host or cells: HEK-293
T2 sequence (Q15717 whole entry): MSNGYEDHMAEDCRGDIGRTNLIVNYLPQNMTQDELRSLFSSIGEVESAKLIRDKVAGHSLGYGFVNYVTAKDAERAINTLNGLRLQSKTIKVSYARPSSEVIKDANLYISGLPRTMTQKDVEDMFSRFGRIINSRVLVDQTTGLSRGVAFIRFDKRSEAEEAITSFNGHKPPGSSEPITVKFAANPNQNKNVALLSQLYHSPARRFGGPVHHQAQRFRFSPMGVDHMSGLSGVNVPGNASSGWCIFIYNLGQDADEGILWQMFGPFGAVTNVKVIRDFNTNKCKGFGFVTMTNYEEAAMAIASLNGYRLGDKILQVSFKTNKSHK
Experimental: To assess the effects of the HuR degraders in cells in a high-throughput fashion, a GFP-HuR reporter assay was utilized. In this assay, HuR was fused with green fluorescent protein (GFP), facilitating the monitoring of its expression and stability through fluorescence intensity (Figure A). A decrease in the GFP signal indicates HuR degradation.
HEK-293 cells were cultured in 100 mm diameter plates to approximately 70% confluency and transfected with 15 μg of GFP-HuR (ELAVL1) reporter plasmid (Addgene #121162) in a 1:2 ratio with the PEI transfection reagent (Med Chem Express, HY-K2014) at a concentration of 1 mg/mL, following the manufacturer’s recommended protocol. After 6 h of transfection, the cells were reseeded into 96-well plates. […] Fluorescence measurements were taken using the Synergy H1 Hybrid Multi-Mode Microplate Reader (Biotek, Agilent) with excitation and emission wavelengths set to 479 and 520 nm, respectively, according to the manufacturer’s instructions. All experiments were performed in triplicate.

T1 sequence (Q15717 18-186 limits assumed): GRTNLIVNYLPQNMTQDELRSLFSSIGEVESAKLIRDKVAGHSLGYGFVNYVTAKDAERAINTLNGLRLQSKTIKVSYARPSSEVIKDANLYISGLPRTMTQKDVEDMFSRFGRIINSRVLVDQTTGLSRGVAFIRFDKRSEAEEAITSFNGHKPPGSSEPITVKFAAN
Sequence of HuR (Q15717 whole entry): as the sequence (Q15717 whole entry) above

Row | Structure (SMILES) | Kd (HuR RRM1/2) [nM] | further results
1 | CCOC(=O)c1cc2cc(N)ccc2[nH]1 [Binder 1] |  | RNA levels of Bcl2 and FOXQ1 with HuR ligands (Bcl2 and FOXQ1 mRNA): no effect was observed; day at which a decrease in spheroid surface area was first observed (MCF-7 spheroids): 14 days; spheroid growth (MCF-7 spheroids; 10 nM): no significant impact on spheroid growth; day at which a decrease in spheroid surface area was first observed (MDA-MB-231 spheroids): 9 days; spheroid growth (MDA-MB-231 spheroids; 10 nM): no significant impact on spheroid growth; HuR expression after treatment with HuR ligands alone (HuR; MCF-7, Binder 1 1 µM 24 h, Binder 2 10 µM 48 h (Figure S8)): No significant decrease in HuR expression
2 | CCOC(=O)c1cc2cc(NC(=O)/C=C/C(=O)c3ccc(OC)cc3)ccc2s1 [MG-HuR1] | 1080 | 
3 | CCOC(=O)c1cc2cc(NC(=O)/C=C/c3ccc(C(F)(F)F)cc3)ccc2[nH]1 [MG-HuR3] | 9.3 | 
4 | CCOC(=O)c1cc2cc(NC(=O)/C=C/c3ccc(C(F)(F)F)cc3)ccc2s1 [MG-HuR4] | 1490 | 
5 | O=C(/C=C/c1ccc(C(F)(F)F)cc1)Nc1ccc2sc(C(=O)O)cc2c1 [MG-HuR5] | 818 | GFP-HuR fluorescence intensity (GFP-HuR): significant reduction in fluorescence intensity
6 | O=C1CCC(N2C(=O)c3cccc(NCc4cn(-c5ccc6[nH]c(C(=O)O)cc6c5)nn4)c3C2=O)C(=O)N1 (centres unmarked) [PRO-HuR1] | 9.5 | 
7 | O=C1CCC(N2C(=O)c3cccc(NCCc4cn(CCCC(=O)Nc5ccc6[nH]c(C(=O)O)cc6c5)nn4)c3C2=O)C(=O)N1 (centres unmarked) [PRO-HuR2] | 10.1 | 
8 | CCOC(=O)c1cc2cc(-n3cc(CNc4cccc5c4C(=O)N(C4CCC(=O)NC4=O)C5=O)nn3)ccc2s1 (centres unmarked) [PRO-HuR4] | 10.6 | time-dependent response of HuR degradation (HuR; MCF-7, 10 μM): did not; HuR degradation ability (HuR; MCF-7, 10 μM, 24 h): higher degradation efficiency
9 | CCOC(=O)c1cc2cc(NC(=O)C3CCN(c4cccc5c4C(=O)N(C4CCC(=O)NC4=O)C5=O)CC3)ccc2s1 (centres unmarked) [PRO-HuR5] | 6.5 | 
10 | CCOC(=O)c1cc2cc(NC(=O)CCC(=O)N3CCN(c4cccc5c4C(=O)N(C4CCC(=O)NC4=O)C5=O)CC3)ccc2s1 (centres unmarked) [PRO-HuR6] | 9390 | 
11 | CCOC(=O)c1cc2cc(-n3cc(-c4ccc(C(=O)NCCNc5cccc6c5C(=O)N(C5CCC(=O)NC5=O)C6=O)cc4)nn3)ccc2s1 (centres unmarked) [PRO-HuR7] | 45.8 | 
12 | CCOC(=O)c1cc2cc(NC(=O)C3CN(c4cccc5c4C(=O)N(C4CCC(=O)NC4=O)C5=O)C3)ccc2s1 (centres unmarked) [PRO-HuR8] | 6430 | 
